Results from BindingDB's records for patent US20250059188 (Anaxis Pharma, 2025).

Legend:
Assay in all cases: In Vitro Assay
[1] = biological target: T1, Receptor-interacting serine/threonine-protein kinase 1 (Homo sapiens, UniProt Q13546)
T1 sequence (Q13546 whole entry): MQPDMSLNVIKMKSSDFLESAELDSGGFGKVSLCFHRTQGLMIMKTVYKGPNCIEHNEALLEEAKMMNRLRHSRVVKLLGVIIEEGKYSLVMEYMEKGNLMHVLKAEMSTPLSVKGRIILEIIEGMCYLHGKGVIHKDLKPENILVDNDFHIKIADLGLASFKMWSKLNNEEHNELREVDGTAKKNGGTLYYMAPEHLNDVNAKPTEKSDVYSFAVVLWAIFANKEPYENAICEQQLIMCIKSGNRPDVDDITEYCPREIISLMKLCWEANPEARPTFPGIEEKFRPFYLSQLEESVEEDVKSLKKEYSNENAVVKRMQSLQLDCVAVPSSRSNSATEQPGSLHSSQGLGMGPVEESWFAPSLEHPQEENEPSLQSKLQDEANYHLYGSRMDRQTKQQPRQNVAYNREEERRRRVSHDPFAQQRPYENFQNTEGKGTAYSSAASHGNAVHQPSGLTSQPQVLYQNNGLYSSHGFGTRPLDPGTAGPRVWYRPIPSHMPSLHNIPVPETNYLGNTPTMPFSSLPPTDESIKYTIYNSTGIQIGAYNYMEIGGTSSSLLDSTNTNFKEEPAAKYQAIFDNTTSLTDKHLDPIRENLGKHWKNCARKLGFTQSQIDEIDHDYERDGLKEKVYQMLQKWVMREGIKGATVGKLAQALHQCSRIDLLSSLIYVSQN
Experimental: (§1) For most assays, kinase-tagged T7 phage strains were grown in parallel in 24-well blocks in an E. coli host derived from the BL21 strain. E. coli were grown to log-phase and infected with T7 phage from a frozen stock (multiplicity of infection=0.4) and incubated with shaking at 32° C. until lysis (90-150 minutes). The lysates were centrifuged (6,000×g) and filtered (0.2 μm) to remove cell debris. The remaining kinases were produced in HEK-293 cells and subsequently tagged with DNA for qPCR detection. […] The liganded beads were blocked with excess biotin and washed with blocking buffer (SeaBlock (Pierce), 1% BSA, 0.05% Tween 20, 1 mM DTT) to remove unbound ligand and to reduce non-specific phage binding. […] All reactions were performed in polypropylene 384-well plates in a final volume of 20 μL. […] The kinase concentration in the eluates was measured by qPCR.

[2] = biological target: T2, Mixed lineage kinase domain-like protein (Homo sapiens, UniProt Q8NB16)
T2 sequence (Q8NB16 whole entry): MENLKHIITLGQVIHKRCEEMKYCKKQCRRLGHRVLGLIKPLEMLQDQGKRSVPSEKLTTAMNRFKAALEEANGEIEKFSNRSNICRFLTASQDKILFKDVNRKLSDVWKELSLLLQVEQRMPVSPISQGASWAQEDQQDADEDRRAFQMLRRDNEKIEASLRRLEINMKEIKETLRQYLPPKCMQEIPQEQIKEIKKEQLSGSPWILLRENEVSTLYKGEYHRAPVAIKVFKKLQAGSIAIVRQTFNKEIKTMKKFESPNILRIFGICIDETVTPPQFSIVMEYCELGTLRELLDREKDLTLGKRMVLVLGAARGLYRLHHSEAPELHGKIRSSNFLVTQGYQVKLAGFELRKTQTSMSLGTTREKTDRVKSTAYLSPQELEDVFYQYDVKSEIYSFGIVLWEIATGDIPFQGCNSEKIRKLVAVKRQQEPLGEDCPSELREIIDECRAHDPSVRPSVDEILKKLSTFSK
Experimental: as §1

[3] = biological target: Receptor-interacting serine/threonine-protein kinase 3 (Homo sapiens, UniProt Q9Y572)
Sequence of Receptor-interacting serine/threonine-protein kinase 3 (Q9Y572 whole entry): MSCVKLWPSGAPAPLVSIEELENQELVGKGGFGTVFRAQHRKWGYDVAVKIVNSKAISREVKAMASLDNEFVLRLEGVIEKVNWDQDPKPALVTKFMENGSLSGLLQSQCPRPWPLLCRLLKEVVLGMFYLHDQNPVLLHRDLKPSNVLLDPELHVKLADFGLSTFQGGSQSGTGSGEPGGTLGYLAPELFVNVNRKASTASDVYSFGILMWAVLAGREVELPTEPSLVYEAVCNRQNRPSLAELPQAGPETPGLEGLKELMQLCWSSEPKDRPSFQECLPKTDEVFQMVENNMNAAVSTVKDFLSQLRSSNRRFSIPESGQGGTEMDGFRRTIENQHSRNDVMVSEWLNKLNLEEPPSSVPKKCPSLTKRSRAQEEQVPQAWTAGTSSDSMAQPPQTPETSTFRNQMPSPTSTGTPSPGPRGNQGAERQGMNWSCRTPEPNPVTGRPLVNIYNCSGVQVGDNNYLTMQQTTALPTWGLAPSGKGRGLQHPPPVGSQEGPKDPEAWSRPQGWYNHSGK
Experimental: as §1

Row | SMILES | Kd [1] [µM] | Kd [2] [µM] | Kd [3] [µM]
1 | Cn1nc(-c2ccc(NS(=O)(=O)C(F)F)c(OCc3ccc(F)cc3)c2)c2c(N)ncc(-c3ccncc3)c21 [US20250059188, Compound 14] | > 10 | < 0.001 | > 10
2 | C[C@H](Oc1cc(C2C=NN3C=CN=C(N)C23)ccc1NS(=O)(=O)C(F)F)c1ccc(F)cc1 (some centres undefined) [US20250059188, Compound 22] | > 10 | < 0.001 | > 10
3 | COc1ccc([C@H](C)Oc2cc(-c3nn(C)c4c(-c5cnn(C6CCOCC6)c5)cnc(N)c34)ccc2NS(=O)(=O)C(F)F)cc1 [US20250059188, Compound 129] | > 10 | < 0.001 | > 10
4 | C[C@H](Oc1cc(-c2nn(C)c3c(-c4cnn(C5CCN(C)C(C(F)F)C5)c4)cnc(N)c23)ccc1NS(=O)(=O)C(F)F)c1ccc(F)cc1 (some centres undefined) [US20250059188, Compound 158] | > 10 | – | > 10
5 | C[C@H](Oc1cc(-c2nn(C)c3c(-c4cnn(C5CCC(N(C)C)C5)c4)cnc(N)c23)ccc1NS(=O)(=O)C(F)F)c1ccc(F)cc1 (some centres undefined) [US20250059188, Compound 168] | > 10 | < 0.001 | > 10
